The nature of data set [1]: Molar enthalpy of transition or fusion. Particulars: Crystal; DSC.
The conditions of data set [2]: Crystal; DTA.

± gives the expanded uncertainty stated by the source.

As to `CCCCCCCCCCCCCCCC(=O)OCC(COC(=O)CCCCCCCCCCCCCCC)OC(=O)CCCCCCCCCCCCCCC` [1,2,3-propanetriyl tri(hexadecanoate)], in data set [1], the “Molar enthalpy of transition or fusion” value was found to be 43.3 ± 1.24 kcal/mol. Further, in data set [2], the Normal melting temperature was 67.6 ± 0.7 °C.
In the case of `CCCCCCCCCCCCCC(=O)OCC(COC(=O)CCCCCCCCCCCCC)OC(=O)CCCCCCCCCCCCC` [1,2,3-propanetriyl tri(tetradecanoate)], in data set [1], the “Molar enthalpy of transition or fusion” value came out at 36.7 ± 1.48 kcal/mol. In addition, in data set [2], the Normal melting temperature was found to be 58.0 ± 0.7 °C.
On the same counts, the results for `CCCCCCCCCCCC(=O)OCC(COC(=O)CCCCCCCCCCC)OC(=O)CCCCCCCCCCC` [1,2,3-propanetriyl tridodecanoate] are 30.4 ± 0.598 kcal/mol and 48.8 ± 0.7 °C.
For `CCCCCCCCCCCC(=O)O` [dodecanoic acid] the same measures were 8.99 ± 0.213 kcal/mol and 44.2 ± 0.7 °C.
`CCCCCCCCCCCCCCCCCC(=O)OCC(COC(=O)CCCCCCCCCCCCCCCCC)OC(=O)CCCCCCCCCCCCCCCCC` [glycerol trioctadecanoate]: in data set [1], the “Molar enthalpy of transition or fusion” value worked out at 46.7 ± 2.06 kcal/mol. Moreover, the Normal melting temperature in data set [2] amounted to 73.5 ± 0.7 °C.
Consider `CCCCCCCCCCCCCCCC` [hexadecane], for which the Normal melting temperature in data set [2] amounted to 18.2 ± 0.7 °C.
`CCCCCCCCCCCCCCCC(=O)O` [hexadecanoic acid]: the “Molar enthalpy of transition or fusion” value in data set [1] amounted to 13.3 ± 0.359 kcal/mol. In addition, the Normal melting temperature in data set [2] amounted to 62.8 ± 0.7 °C.
For `CCCCCCCCCCCCCCCCCC(=O)O` [octadecanoic acid] the same measures were 15.1 ± 0.406 kcal/mol and 70.0 ± 0.7 °C.
On to `CCCCCCCCCCCCCC(=O)O` [tetradecanoic acid], for which the “Molar enthalpy of transition or fusion” value in data set [1] worked out at 10.7 ± 0.263 kcal/mol. In data set [2], the Normal melting temperature came to 54.5 ± 0.7 °C.
